We go through 22 compounds from patent publication EP4755888A1 (ILAb Co., Ltd., priority 2023, dated 2025).

Bounds are passed on as bounds.

The assay has as its target PD-1/PD-L1 (Homo sapiens, UniProt Q9NZQ7). Kind of assay: TR-FRET PD-1/PD-L1 binding inhibition at the molecular level (free proteins). The conditions noted are these: Tag1-PD-L1 and Tag2-PD-1 proteins, twelve concentrations from 200 nM, 2 hours at room temperature, read-out: FRET assay (IC50). The method, boiled down:
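HTRF read-out at 665/620 nm after 2 h at room temperature. Detection used anti-Tag1 Eu cryptate plus anti-Tag2 XL665 antibodies. Tagged PD-L1 and PD-1 proteins were pre-mixed with compound across twelve […] 1:2 dilutions starting at 200 nM.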
A general note: TR-FRET usually uses a lanthanide donor and a delayed reading to cut background.

PD-1/PD-L1, sequence (Q9NZQ7 19-238 limits assumed): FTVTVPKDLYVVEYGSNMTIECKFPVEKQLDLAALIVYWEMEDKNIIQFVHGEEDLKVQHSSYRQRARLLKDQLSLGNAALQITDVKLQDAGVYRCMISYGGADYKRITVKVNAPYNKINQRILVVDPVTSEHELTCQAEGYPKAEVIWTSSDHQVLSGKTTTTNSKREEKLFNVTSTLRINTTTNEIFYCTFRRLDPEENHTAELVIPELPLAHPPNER

Usually IC50 stands for the concentration that gives 50% inhibition. For `CC(=O)NCCNC1CCCn2nc(C(=O)Nc3cccc(-c4cccc(-c5nc6cc(CN7CC[C@@H](C(=O)O)C7)cc(C#N)c6o5)c4C)c3C)cc21` (stereo partly drawn) [Compound 62, (3R)-1-((2-(3'-(4-((2-acetamidoethyl)amino)-4,5,6,7-tetrahydropyrazolo[1,5-a]pyridine-2-carboxamido)-2,2'-dimethyl-[1,1'-biphenyl]-3-yl)-7-cyanobenzo[d]oxazol-5-yl)methyl)pyrrolidine-3-carboxylic acid], the IC50 is less than 10 nM.
To `Cc1c(NC(=O)c2cc3n(n2)CCCC3NCCO)cccc1-c1cccc(-c2nc3cc(CN4CC[C@@H](C(=O)O)C4)cc(C#N)c3o2)c1C` (stereo partly drawn) [Compound 64, (3R)-1-((7-cyano-2-(3'-(4-((2-hydroxyethyl)amino)-4,5,6,7-tetrahydropyrazolo[1,5-a]pyridine-2-carboxamido)-2,2'-dimethyl-[1,1'-biphenyl]-3-yl)benzo[d]oxazol-5-yl)methyl)pyrrolidine-3-carboxylic acid] belongs less than 10 nM; to `Cc1c(NC(=O)c2cc3n(n2)CCCC3NC[C@@H]2CCC(=O)N2)cccc1-c1cccc(-c2nc3cc(CN4CC[C@@H](C(=O)O)C4)cc(C#N)c3o2)c1C` (stereo partly drawn) [Compound 65, (3R)-1-((7-cyano-2-(2,2'-dimethyl-3'-(4-((((S)-5-oxopyrrolidin-2-yl)methyl)amino)-4,5,6,7-tetrahydropyrazolo[1,5-a]pyridine-2-carboxamido)-[1,1'-biphenyl]-3-yl)benzo[d]oxazol-5-yl)methyl)pyrrolidine-3-carboxylic acid], less than 10 nM.
Under `Cc1c(NC(=O)c2cc3n(n2)CCCC3NCC(=O)O)cccc1-c1cccc(-c2nc3cc(CN4CC[C@@H](C(=O)O)C4)cc(C#N)c3o2)c1C` (stereo partly drawn) [Compound 66, (3R)-1-((2-(3'-(4-((carboxymethyl)amino)-4,5,6,7-tetrahydropyrazolo[1,5-a]pyridine-2-carboxamido)-2,2'-dimethyl-[1,1'-biphenyl]-3-yl)-7-cyanobenzo[d]oxazol-5-yl)methyl)pyrrolidine-3-carboxylic acid] stands less than 10 nM; under `N#Cc1cc(CN2CC[C@@H](C(=O)O)C2)cc2nc(-c3cccc(-c4cccc(NC(=O)c5cc6n(n5)CCCC6O)c4Cl)c3Cl)oc12` (stereo partly drawn) [Compound 67, (3R)-1-((7-cyano-2-(2,2'-dichloro-3'-(4-hydroxy-4,5,6,7-tetrahydropyrazolo[1,5-a]pyridine-2-carboxamido)-[1,1'-biphenyl]-3-yl)benzo[d]oxazol-5-yl)methyl)pyrrolidine-3-carboxylic acid], less than 10 nM; under `N#Cc1cc(CN2CC[C@@H](C(=O)O)C2)cc2nc(-c3cccc(-c4cccc(NC(=O)c5cc6n(n5)CCCC6NC[C@@H]5CCC(=O)N5)c4Cl)c3Cl)oc12` (stereo partly drawn) [Compound 68, (3R)-1-((7-cyano-2-(2,2'-dichloro-3'-(4-((((S)-5-oxopyrrolidin-2-yl)methyl)amino)-4,5,6,7-tetrahydropyrazolo[1,5-a]pyridine-2-carboxamido)-[1,1'-biphenyl]-3-yl)benzo[d]oxazol-5-yl)methyl)pyrrolidine-3-carboxylic acid], less than 10 nM.
Turning to `CC(=O)NCCNC1CCCn2nc(C(=O)Nc3cccc(-c4cccc(-c5nc6cc(CN7CC[C@@H](C(=O)O)C7)cc(C#N)c6o5)c4Cl)c3Cl)cc21` (stereo partly drawn) [Compound 69, (3R)-1-((2-(3'-(4-((2-acetamidoethyl)amino)-4,5,6,7-tetrahydropyrazolo[1,5-a]pyridine-2-carboxamido)-2,2'-dichloro-[1,1'-biphenyl]-3-yl)-7-cyanobenzo[d]oxazol-5-yl)methyl)pyrrolidine-3-carboxylic acid], the half-maximal inhibitory concentration (IC50) was less than 10 nM.
`N#Cc1cc(CN2CC[C@@H](C(=O)O)C2)cc2nc(-c3cccc(-c4cccc(NC(=O)c5cc6n(n5)CCCC6NCCO)c4Cl)c3Cl)oc12` (stereo partly drawn) [Compound 70, (3R)-1-((7-cyano-2-(2,2'-dichloro-3'-(4-((2-hydroxyethyl)amino)-4,5,6,7-tetrahydropyrazolo[1,5-a]pyridine-2-carboxamido)-[1,1'-biphenyl]-3-yl)benzo[d]oxazol-5-yl)methyl)pyrrolidine-3-carboxylic acid]: the IC50 was less than 10 nM.
With `Cc1c(NC(=O)c2ccc(CNCCO)cn2)cccc1-c1cccc(NC(=O)c2cc3n(n2)CCCC3O)c1C` (stereo not shown) [Compound 71, 4-hydroxy-N-(3'-(5-(((2-hydroxyethyl)amino)methyl)picolinamido)-2,2'-dimethyl-[1,1'-biphenyl]-3-yl)-4,5,6,7-tetrahydropyrazolo[1,5-a]pyridine-2-carboxamide], the IC50 is less than 10 nM.
Under `CC(=O)NCCNC1CCCn2nc(C(=O)Nc3cccc(-c4cccc(NC(=O)c5ccc(CNCCO)cn5)c4C)c3C)cc21` (stereo not shown) [Compound 72, 4-((2-acetamidoethyl)amino)-N-(3'-(5-(((2-hydroxyethyl)amino)methyl)picolinamido)-2,2'-dimethyl-[1,1'-biphenyl]-3-yl)-4,5,6,7-tetrahydropyrazolo[1,5-a]pyridine-2-carboxamide] stands less than 10 nM; under `Cc1c(NC(=O)c2ccc(CNCCO)cn2)cccc1-c1cccc(NC(=O)c2cc3n(n2)CCCC3N2CC[C@@H](O)C2)c1C` (stereo partly drawn) [Compound 73, N-(3'-(5-(((2-hydroxyethyl)amino)methyl)picolinamido)-2,2'-dimethyl-[1,1'-biphenyl]-3-yl)-4-((R)-3-hydroxypyrrolidin-1-yl)-4,5,6,7-tetrahydropyrazolo[1,5-a]pyridine-2-carboxamide], less than 10 nM.
To `Cc1c(NC(=O)c2ccc(CNCCO)cn2)cccc1-c1cccc(NC(=O)c2cc3n(n2)CCCC3NCCO)c1C` (stereo not shown) [Compound 74] belongs less than 10 nM.
Under `Cc1c(NC(=O)c2ccc(CNCCO)cn2)cccc1-c1cccc(NC(=O)c2cc3n(n2)CCCC3NCC2CCC(=O)N2)c1C` (stereo not shown) [Compound 75, N-(3'-(5-(((2-hydroxyethyl)amino)methyl)picolinamido)-2,2'-dimethyl-[1,1'-biphenyl]-3-yl)-4-(((5-oxopyrrolidin-2-yl)methyl)amino)-4,5,6,7-tetrahydropyrazolo[1,5-a]pyridine-2-carboxamide] stands less than 10 nM.
Turning to `Cc1c(NC(=O)c2ccc(CNCCO)cn2)cccc1-c1cccc(NC(=O)c2cc3n(n2)CCCC3NCC(=O)O)c1C` (stereo not shown) [Compound 76, 2-((2-((3'-(5-(((2-hydroxyethyl)amino)methyl)picolinamido)-2,2'-dimethyl-[1,1'-biphenyl]-3-yl)carbamoyl)-4,5,6,7-tetrahydropyrazolo[1,5-a]pyridin-4-yl)amino)acetic acid], the IC50 is less than 10 nM.
As to `Cc1c(NC(=O)c2ccc(CNCCO)cn2)cccc1-c1cccc(NC(=O)c2cc3n(n2)CCCC3N2CC[C@@H](C(=O)O)C2)c1C` (stereo partly drawn) [Compound 77, (3R)-1-(2-((3'-(5-(((2-hydroxyethyl)amino)methyl)picolinamido)-2,2'-dimethyl-[1,1'-biphenyl]-3-yl)carbamoyl)-4,5,6,7-tetrahydropyrazolo[1,5-a]pyridin-4-yl)pyrrolidine-3-carboxylic acid], the IC50 is less than 10 nM.
With `Cc1c(NC(=O)c2ccc(CNCCO)cn2)cccc1-c1cccc(NC(=O)c2cc3n(n2)CCCC3N2CCC(O)CC2)c1C` (stereo not shown) [Compound 78, N-(3'-(5-(((2-hydroxyethyl)amino)methyl)picolinamido)-2,2'-dimethyl-[1,1'-biphenyl]-3-yl)-4-(4-hydroxypiperidin-1-yl)-4,5,6,7-tetrahydropyrazolo[1,5-a]pyridine-2-carboxamide], the concentration for half-maximal inhibition (IC50) was less than 10 nM.
Under `Cc1c(NC(=O)c2ccc(CNCCO)cn2)cccc1-c1cccc(NC(=O)c2cc3n(n2)CCCC3N2CCC(C(=O)O)CC2)c1C` (stereo not shown) [Compound 79, 1-(2-((3'-(5-(((2-hydroxyethyl)amino)methyl)picolinamido)-2,2'-dimethyl-[1,1'-biphenyl]-3-yl)carbamoyl)-4,5,6,7-tetrahydropyrazolo[1,5-a]pyridin-4-yl)piperidine-4-carboxylic acid] stands less than 10 nM; under `Cc1c(NC(=O)c2ccc(CNCCO)cn2)cccc1-c1cccc(NC(=O)c2cc3n(n2)CCCC3NC(C)(C)C(=O)O)c1C` (stereo not shown) [Compound 80, 2-((2-((3'-(5-(((2-hydroxyethyl)amino)methyl)picolinamido)-2,2'-dimethyl-[1,1'-biphenyl]-3-yl)carbamoyl)-4,5,6,7-tetrahydropyrazolo[1,5-a]pyridin-4-yl)amino)-2-methylpropanoic acid], less than 10 nM.
Regarding `O=C(Nc1cccc(-c2cccc(NC(=O)c3cc4n(n3)CCCC4O)c2Cl)c1Cl)c1ccc(CNCCO)cn1` (stereo not shown) [Compound 81, N-(2,2'-dichloro-3'-(5-(((2-hydroxyethyl)amino)methyl)picolinamido)-[1,1'-biphenyl]-3-yl)-4-hydroxy-4,5,6,7-tetrahydropyrazolo[1,5-a]pyridine-2-carboxamide], the IC50 was less than 10 nM.
As for `CC(=O)NCCNC1CCCn2nc(C(=O)Nc3cccc(-c4cccc(NC(=O)c5ccc(CNCCO)cn5)c4Cl)c3Cl)cc21` (stereo not shown) [Compound 82, 4-((2-acetamidoethyl)amino)-N-(2,2'-dichloro-3'-(5-(((2-hydroxyethyl)amino)methyl)picolinamido)-[1,1'-biphenyl]-3-yl)-4,5,6,7-tetrahydropyrazolo[1,5-a]pyridine-2-carboxamide], the IC50 is less than 10 nM.
To `O=C(Nc1cccc(-c2cccc(NC(=O)c3cc4n(n3)CCCC4NCCO)c2Cl)c1Cl)c1ccc(CNCCO)cn1` (stereo not shown) [Compound 83, N-(2,2'-dichloro-3'-(5-(((2-hydroxyethyl)amino)methyl)picolinamido)-[1,1'-biphenyl]-3-yl)-4-((2-hydroxyethyl)amino)-4,5,6,7-tetrahydropyrazolo[1,5-a]pyridine-2-carboxamide] belongs less than 10 nM; to `O=C(Nc1cccc(-c2cccc(NC(=O)c3cc4n(n3)CCCC4N3CC[C@@H](O)C3)c2Cl)c1Cl)c1ccc(CNCCO)cn1` (stereo partly drawn) [Compound 85, N-(2,2'-dichloro-3'-(5-(((2-hydroxyethyl)amino)methyl)picolinamido)-[1,1'-biphenyl]-3-yl)-4-((R)-3-hydroxypyrrolidin-1-yl)-4,5,6,7-tetrahydropyrazolo[1,5-a]pyridine-2-carboxamide], less than 10 nM.
